Active and inactive are the calls of the source.
Tests used:
[1] = target: T1, Glutamate NMDA receptor (Rattus norvegicus) (UniProt P35439+Q00959+Q00960+Q00961+Q62645+Q8VHN2+Q9R1M7); test: Potentiation of NMDA receptor mediated excitatory post-synaptic currents in the CA1 region of rat hippocampal slices upto 1 hr by whole-cell patch-clamp assay
[2] = target: T2, Amino acid transporter (Rattus norvegicus) (UniProt Q9Z1J7); test: Inhibition of ASCT2 mediated [3H]-D-serine uptake in rat hippocampal astrocytes at 1 mM after 5 mins by beta counting analysis; type: cell-based
T2 sequence (whole entry): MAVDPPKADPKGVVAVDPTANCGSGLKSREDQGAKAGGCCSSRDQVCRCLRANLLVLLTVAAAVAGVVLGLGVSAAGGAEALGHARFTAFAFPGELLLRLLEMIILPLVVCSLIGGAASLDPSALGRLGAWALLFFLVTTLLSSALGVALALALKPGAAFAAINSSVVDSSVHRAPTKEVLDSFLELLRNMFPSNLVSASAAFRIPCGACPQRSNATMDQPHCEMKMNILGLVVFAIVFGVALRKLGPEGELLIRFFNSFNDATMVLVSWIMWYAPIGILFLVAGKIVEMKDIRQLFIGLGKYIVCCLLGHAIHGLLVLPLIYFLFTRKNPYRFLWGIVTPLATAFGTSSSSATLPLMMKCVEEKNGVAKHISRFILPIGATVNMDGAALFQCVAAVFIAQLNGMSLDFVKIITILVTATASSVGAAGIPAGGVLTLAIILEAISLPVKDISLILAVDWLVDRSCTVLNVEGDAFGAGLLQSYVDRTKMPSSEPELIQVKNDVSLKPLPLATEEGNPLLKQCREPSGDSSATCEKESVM

Rattus norvegicus [3] = species: Rattus norvegicus; test: Inhibition of D-serine transporter in Sprague-Dawley rat visual cortex assessed as LTP threshold after 15 mins
Rattus norvegicus [4] = species: Rattus norvegicus; test: Inhibition of D-serine transporter in rat hippocampal slices assessed as increase in LTP at 100 uM
Mus musculus [5] = test: Reduction in amphetamine-induced hyperactivity in C57B/6 mouse model of schizophrenia at 1 mg/kg administered at 30 mins after habituation in open field apparatus followed by amphetamine injection measured for 1 hr post dose; type: functional, organism-based
[6] = target: T2, Amino acid transporter (Rattus norvegicus); test: Inhibition of ASCT2 in rat hippocampal astrocytes assessed as reduction in [3H]-D-serine uptake in presence of L-t-40HPro after 5 mins by beta counting analysis; type: cell-based
Rattus norvegicus [7] = test: Antipsychotic activity in rat model of schizophrenia assessed as […] in prepulse inhibition at 15 mg/kg; type: functional, organism-based
[8] = target: T1, Glutamate NMDA receptor (Rattus norvegicus); test: Activation of NMDA receptor in rat visual cortex assessed as increase in theta burst stimulation of LTP after 15 mins followed by LTP induction in presence of DAAO by electrophysiological assay
[9] = target: T1, Glutamate NMDA receptor (Rattus norvegicus); test: Activation of NMDA receptor in rat visual cortex assessed as increase in theta burst stimulation of LTP after 15 mins followed by LTP induction by electrophysiological assay
Rattus norvegicus [10] = test: Effect on absolute startle response in rat model of schizophrenia at 15 mg/kg; type: ADME, organism-based; conditions: in vivo
[11] = target: T1, Glutamate NMDA receptor (Rattus norvegicus); test: Potentiation of NMDA receptor mediated excitatory post-synaptic currents in the CA1 region of rat hippocampal slices after 1 hr by electrophysiological assay
[12] = target: T2, Amino acid transporter (Rattus norvegicus); test: Inhibition of ASCT2 in rat hippocampal astrocytes assessed as reduction in [3H]-D-serine uptake in presence of L-glutamine after 5 mins by beta counting analysis; type: cell-based
Rattus norvegicus [13] = test: Effect on absolute startle response in rat model of schizophrenia at 600 mg/kg; type: ADME, organism-based; conditions: in vivo
Rattus norvegicus [14] = test: Antipsychotic activity in rat model of schizophrenia assessed as […] in prepulse inhibition at 600 mg/kg; type: functional, organism-based
Mus musculus [15] = test: Reduction in amphetamine-induced hyperactivity in C57B/6 mouse model of schizophrenia at 0.3 mg/kg, ip administered at 30 mins after habituation in open field apparatus followed by amphetamine injection measured for 1 hr post dose; type: functional, organism-based
Mus musculus [16] = test: Reduction in amphetamine-induced hyperactivity in systemically dosed C57B/6 mouse model of schizophrenia administered at 30 mins after habituation in open field apparatus followed by amphetamine injection measured for 1 hr post dose; type: functional, organism-based

SMILES	inhibition [2]	other results
N[C@@H](CCC(=O)OCc1ccccc1)C(=O)O		Activity [1]: inactive
N[C@@H](CSc1ccccc1)C(=O)O	> 25%	Activity [1]: inactive
N[C@@H](CCC(=O)Nc1ccc([N+](=O)[O-])cc1)C(=O)O	> 25%	Activity (Rattus norvegicus [3]): 100 µM; inhibition (Rattus norvegicus [4]): Active; Activity [1]: inactive
NC(=O)C[C@H](N)C(=O)O	> 25%	Activity (Rattus norvegicus [3]): 3 µM; Activity [1]: inactive
O=C(O)[C@@H]1C[C@@H](Cc2ccc(Cl)cc2Cl)CN1		Activity (Mus musculus [5]): Active
NC(=O)CC[C@H](N)C(=O)O	> 25%	inhibition [6]: Active; Activity [1]: inactive
N[C@H](C(=O)O)c1ccc(O)cc1 [OXFENICINE]	> 25%	Activity (Rattus norvegicus [7]): Active; Activity [8]: inactive; Activity [9]: Dose-dependent effect; Activity (Rattus norvegicus [3]): 10 µM; Activity (Rattus norvegicus [10]): Non-Toxic; Activity [11]: inactive; Activity [1]: Dose-dependent effect
O=C(O)[C@@H]1C[C@@H](O)CN1	> 25%	inhibition [12]: Active; Activity (Rattus norvegicus [3]): 3 µM; Activity [1]: inactive
O=C(O)C1C[C@@H](Cc2ccc([N+](=O)[O-])cc2)CN1 (single isomer, unassigned)	> 25%	
N[C@H](C(=O)O)c1ccc(O)c(C(=O)O)c1	> 25%	
O=C(O)[C@@H]1C[C@@H](Cc2ccco2)CN1	> 25%	
Cc1cc(C(N)C(=O)O)ccc1F (stereo unspecified)	> 25%	
NC(C(=O)O)c1ccc(F)c(F)c1 (stereo unspecified)	> 25%	
Cc1ccccc1C[C@H]1CNC(C(=O)O)C1 (single isomer, unassigned)	> 25%	
N[C@@H](CCC(=O)NO)C(=O)O	> 25%	
O=C(O)C1C[C@@H](Cc2ccccc2Br)CN1 (single isomer, unassigned)	> 25%	
O=C(O)C1C[C@@H](Cc2ccccc2Cl)CN1 (single isomer, unassigned)	> 25%	
O=C(O)[C@H]1NCC[C@@H]1c1ccccc1	> 25%	
Cc1ccc(SC[C@H](N)C(=O)O)cc1	> 25%	
COc1ccc(C(N)C(=O)O)cc1 (stereo unspecified)	> 25%	
N#Cc1ccc(C[C@H]2CNC(C(=O)O)C2)cc1 (single isomer, unassigned)	> 25%	
O=C(O)[C@@H]1C[C@@H](Cc2ccc(C(F)(F)F)cc2)CN1	> 25%	
NC(C(=O)O)c1cccc(Br)c1 (stereo unspecified)	> 25%	
C[C@H](O)[C@H](N)C(=O)O	> 25%	

SMILES	inhibition [2]	other results
N[C@H](CO)C(=O)O [(D)-SERINE]	> 25%	Activity (Rattus norvegicus [13]): Non-Toxic; Activity (Rattus norvegicus [14]): inactive; Activity (Rattus norvegicus [3]): 3 µM; Activity [1]: inactive
O=C(O)C1C[C@@H](Cc2csc3ccccc23)CN1 (single isomer, unassigned)	> 25%	
O=C(O)C1C[C@@H](Cc2cccc(Br)c2)CN1 (single isomer, unassigned)	> 25%	
O=C(O)[C@@H]1C[C@@H](Oc2cccc(Cl)c2)CN1	> 25%	
NC(CCC(=O)Nc1ccccc1)C(=O)O (stereo unspecified)	> 25%	
O=C(O)[C@H]1NCCC1c1ccccc1 (stereo partly specified)	> 25%	
N[C@@H](CSCc1ccccc1)C(=O)O	> 25%	Activity [1]: inactive
N[C@@H](CC1CCCC1)C(=O)O	> 25%	
NC(C(=O)O)c1ccccc1F (stereo unspecified)	> 25%	Activity (Rattus norvegicus [3]): > 300 µM; Activity [1]: inactive
O=C(O)[C@@H]1NCC[C@H]1Cc1ccc(F)cc1	> 25%	
O=C(O)[C@@H]1CCCN1	> 25%	Activity [1]: inactive
NC(C(=O)O)c1ccc([N+](=O)[O-])cc1 (stereo unspecified)	> 25%	
N[C@H](C(=O)O)c1ccc(C(F)(F)F)cc1	> 25%	
C[C@@H](N)C(=O)O	> 25%	
Cc1ccccc1[C@H](N)C(=O)O	> 25%	
N[C@H](C(=O)O)c1ccccc1	> 25%	Activity (Rattus norvegicus [3]): 10 µM; Activity [1]: inactive
O=C(O)[C@@H]1CCN1	> 25%	
CC(O)[C@H](C)[C@H](N)C(=O)O (stereo partly specified)	> 25%	
N[C@@H](Cc1csc2ccccc12)C(=O)O	> 25%	
O=C(O)[C@@H]1NCC[C@H]1Cc1ccccc1	> 25%	
O=C(O)C1C[C@@H](Cc2ccncc2)CN1 (single isomer, unassigned)	> 25%	
C[C@H](N)C(=O)O	> 25%	
CC(C)(C)c1ccc(C[C@H]2CNC(C(=O)O)C2)cc1 (single isomer, unassigned)	> 25%	
N[C@@H](CCS)C(=O)O	> 25%	

SMILES	inhibition [2]	other results
O=C(O)C1C[C@@H](Cc2ccccc2F)CN1 (single isomer, unassigned)	> 25%	
N[C@@H](Cc1ccc(O)cc1)C(=O)O	> 25%	
N[C@H]1CCOC1=O	> 25%	
N[C@@H](Cc1cccs1)C(=O)O	> 25%	
N[C@H](C(=O)O)c1ccc(F)cc1	> 25%	Activity (Mus musculus [15]): Active; Activity (Rattus norvegicus [3]): 0.3 µM; Activity (Mus musculus [16]): Dose-dependent effect; Activity [1]: inactive
O=C(O)[C@@H]1C[C@@H](Cc2ccccn2)CN1	> 25%	
NC1(C(=O)O)CCC1	> 25%	
N[C@H](C(=O)O)C1CC1	> 25%	Activity (Rattus norvegicus [3]): 1 µM
CCOC(=O)CC[C@H](N)C(=O)O	> 25%	
Cc1ccc(C[C@H]2CNC(C(=O)O)C2)cc1 (single isomer, unassigned)	> 25%	
C[C@H]1CCN[C@@H]1C(=O)O	> 25%	
O=C(O)[C@@H]1C[C@@H](C2CCCCC2)CN1	> 25%	
O=C(O)C1C[C@@H](Cc2cccc(C(F)(F)F)c2)CN1 (single isomer, unassigned)	> 25%	
O=C(O)c1cc2sccc2[nH]1	> 25%	
O=C(O)[C@H](CO)NCc1ccccc1	> 25%	
N[C@H](C(=O)O)c1ccsc1	> 25%	
O=C(O)[C@@H]1C[C@@H](Cc2cccc(Cl)c2)CN1	> 25%	
O=C(Nc1ccc2ccccc2c1)[C@@H]1CCCN1	> 25%	
N[C@@H](CCC(=O)Nc1cccc2ccccc12)C(=O)O	> 25%	
CC[C@H](N)C(=O)O	> 25%	
O=C(O)[C@@H]1C=CCN1	> 25%	
CNC[C@H](N)C(=O)O	> 25%	
O=C(O)C1C[C@@H](Cc2ccccc2I)CN1 (single isomer, unassigned)	> 25%	
N[C@@H](CO)C(=O)O	> 25%	Activity [1]: inactive

Source: ChEMBL document CHEMBL3991947, “D-serine transporter inhibitors as pharmaceutical compositions for the treatment of central nervous system disorders” (2014)
